Test results reported in US5942494A, “Stimulation of gene expression and synthesis of heat shock protein 72/73 (HSP 70)” (The Trustees of Columbia University in the City of New York, priority 1996, dated 1999).
Numbered stars: 1 amine (or outer) side, 2 acyl side, 3 side chain; on linkers, the order of the positions; unused ones are H or OH. Bridge positions count the residues as written; N and C are the ends. Square brackets hold non-standard residues; d marks the D form. Peptide text beside a SMILES is read from it. I, II: the chains in the order shown. * marks the point of attachment. Actinocin(9to1) = Cc1c2oc3c(C)ccc(C(=O)[*:1])c3nc-2c(C(=O)[*:2])c(N)c1=O; Sta = CC(C)C[C@H](N)[C@@H](O)CC(=O)O; NMeV = CN[C@H](C(=O)O)C(C)C; Isovaleryl = CC(C)CC(=O)*; Cbz = O=C(OCc1ccccc1)*; Sar = CNCC(=O)O

How the values were obtained:
HSF1 = experiment: EGS cross-linking and Western blot of HSF1 oligomeric forms in HepG2 cells; assay type: cell-based, human; conditions: cycloheximide 50 μg/ml with ALLN 40 μg/ml, 2 hours
Description: FIGS. 6A-6B: ALLN affects the trimerization of HSF. HepG2 cells were treated with serum-free MEM containing 1.5% BSA for 2 hours at 37° C. without any additions (lane1), at 37 ° C. but containing 40μg/ml of ALLN in the medium (lane2), at 37° C. in a medium containing both ALLN and 50 μg/ml of cycloheximide (lane3) , at 42° C. alone (lane4), or at 42° C. plus cycloheximide in the medium (lane5). Cell lysates were prepared as described under Experimental Details. The lysates were either directly run on the SDS-PAGE (A) to show the steady-state protein levels of HSF1 or subjected to cross-linking with ethylene glycol bis sucrinimidylsuccinate (EGS) before running the gel (B) to show the oligomeric forms of HSF1. The proteins were then transfered to a nitrocellulose membrane and immunoblotted with anti-human HSF1 antibody. Arrows on the right side indicates the monomeric, dimeric or trimeric forms of HSF1, respectively. This experiment was repeated three times with identical results.
For measurement of the steady-state HSF1 protein levels, whole cell extracts were prepared by lysing the cells directly with 2×SDS-sample buffer (Maniatis, et al., 1982). For chemical cross-linking experiments, whole-cell extracts were prepared as described (Mosser, et al., 1988). Briefly, the cold PBS-washed cell pellets were quickly and repeatedly frozen in liquid nitrogen. […]

hsp70 (hsp72) mRNA = experiment: Northern blot of hsp70 (hsp72) mRNA in HepG2 cells; assay type: cell-based, human; conditions: with ALLN 40 μg/ml, 4 hours; actinomycin D 10 μg/ml; cycloheximide 50 μg/ml
Description: HepG2 cells were treated with serum-free MEM containing either 1.5% BSA alone (Control, lane1), BSA plus 40 μg/ml of ALLN (ALLN, lane2), ALLN and 10 μg/ml of actinomycin D (A+AD, lane3), or ALLN and 50 μg/ml of cycloheximide (A+CXM, lane4). After 4 hours treatment at 37° C., cells were harvested. (B). HepG2 cells were treated with 40 μg/ml of ALLN in the serum-free MEM for up to 0 hour (lane1), 1 hour (lane2), 2 hours (lane3), and 3 hours (lane4) and then harvested without recovery. Or after treatment for 3 hours in the presence of ALLN as above, the ALLN containing medium were removed, cells were washed and fed fresh medium containing only BSA for recovery of up to 1 hour (lane5), 3 hours (lane6), 5 hours (lane7) or 7 hours (lane8). The total RNA was prepared, and equal amounts of the samples were loaded and run on a 1% formaldehyde-agarose gel, blotted onto a nylon membrane, and subsequently hybridized with specific synthetic oligonucleotide probes for hsp70 mRNA as described under Experimental Details. The position of 28S and 18S rRNA are shown for reference.
Total RNA was prepared using the procedure of Chomczynski and Sacchi (Chomczynski, et al., 1987) and a commercially prepared reagent, TRISOLV™ (Biotecx Laboratories Inc., Tex.) . Equal amounts of tRNA samples (10 μg) were size-fractionated on a 1% agarose-formaldehyde gel according to the methods described (Maniatis, et al., 1982) and transferred to a piece of QIAGEN plus nylon membrane. To determine loading and transfer efficiency, RNA was stained with ethidium bromide before and after transfer. The membrane was baked for 30 min. at 80° C. in vacuo (a vacuum) followed by UV cross-linking. It was then incubated for 4 hours at 65° C. in a prehybridization mixture containing 10% dextran sulfate, 1% SDS, 1M sodium chloride, 50 mM Tris-HCl (pH 7.5) and 100 μg/ml denatured salmon sperm DNA. Hybridization was carried out for 18 hours at 65° C. in the same buffer with a ^32 P-labeled (1×10^6 cpm/ml) 40-mer oligonucleotide probe to the untranslated 5' region of a human hsp70 gene (Oncogene Science). […] The membrane was then washed four times with 2×SSC, 0.1% SDS at room temperature, one time at 65° C. for 30 min., and one time at room temperature again for 5 min., and finally rinsed with 2×SSC at room temperature. This membrane was air dried and exposed to X-ray film at -80° C. for 48 hours.
Total RNA was isolated from HepG2 cells which had been incubated for 4 hours at 37° C. (FIG. 5A) with MEM containing BSA alone (Control, lane1), BSA plus 40 μg/ml of ALLN (ALLN, lane2), BSA plus ALLN and […] of actinomycin D (A+AD, lane3) or BSA plus ALLN and 50 μg/ml of cycloheximide (A+CXM, lane4). A radioprobe containing a unique sequence specific for the 5' untranslated region of hsp72 (inducible form) (Freeman et al., 1993) was used for Northern blot analysis.

Hsp70 = Hsp70 levels by denaturing immunoprecipitation of [3H]-leucine radiolabeled HepG2 cells; assay type: cell-based, human; conditions: for Induction of Hsp70 by protease inhibitors: HepG2, 4 hours pre-treatment, ALLN, ALLM 40 μg/ml, leupeptin, pepstatin A 50 μg/ml, E-64d 25 μg/ml, PMSF 1 mM, aprotinin 100 KIU/ml, Benz 1 mM, CIP 200 μM
Description: The HepG2 cell culture conditions were maintained as previously described (Dixon, et al., 1991). The cells were seeded into collagen-pre-coated dishes or six-well tissue culture plates and grown in complete medium containing minimum essential medium (MEM) with 0.1 mM nonessential amino acids, 1.0 mM sodium pyruvate, penicillin/streptomycin, and 10% fetal bovine serum. Cells were fed fresh complete medium every 3 days and maintained in a 5% CO2 incubator. All experiments were performed by using exponentially growing cells at 90-95% confluency. For heat shock treatment, the dishes were sealed with Parafilm and immersed in a water bath at 42° C. for indicated durations of time. Cells were incubated with ALLN alone at indicated concentrations or combined with other chemicals at 37° C. Cells were also incubated with different protease inhibitors alone at indicated concentrations or combined with other chemicals at 37° C.
(§1) HepG2 cells were preincubated for 4 hours in serum-free MEM and then radiolabeled with ^3 H-Leucine (150 μCi/ml) in a serum-free, leucine-free medium. Preincubation and labeling media each contained either 1.5% bovine serum albumin (BSA) alone, or BSA plus ALLN (40 μg/ml except as otherwise indicated), or BSA plus other protease inhibitors at concentrations indicated in the figure legends. At the indicated times, cells were removed from the 37° C. incubator and placed on ice, washed with cold phosphate-buffer saline (PBS) twice and lysed with lysis buffer containing 1% Triton X-100 (TX100), 1% deoxycholic acid (DOC) and 0.1% SDS in PBS containing proteinase inhibitors: 2 mM phenylmethylsulfonyl fluoride (PMSF); 2 μg/ml ALLN; 2 μg/ml leupeptin; and 2 μg/ml aprotinin. After a 30 min. incubation with lysis buffer at 4° C., the lysates were centrifuged at 14,000 g in a microcentrifuge for 5 min., and the supernatants were adjusted to 1% SDS concentration and boiled for 5 min. to denature the proteins. 1% TX100 was then added to dilute the lysates to a final concentration of 0.1% SDS. Cell lysates containing equal amounts of trichloroacetic acid (TCA)-insoluble radioactivity were used for immunoprecipitations by incubating with individual monoclonal antibody (1 μg/ml) for 2.5 hours at 4° C. Protein-A Sepharose 4B was added afterwards and the lysates incubated for another 1.5 hours at 4° C. to collect the immunocomplexes. After washing four times with 1×NET buffer (containing 0.5% TX100, 0.1% SDS), the immunocomplexes were mixed with sample buffer and boiled for 5 min. Following centrifugation, the supernatants were aliquoted for scintillation counting and for 3-15% gradient polyacrymide gel electrophoresis (SDS-PAGE) . The gels were later subjected to fluorography. All values are presented as the mean ± S.D. from three individual experiments except as otherwise indicated.
Denaturing immunoprecipitation was chosen because Hsp70 is a major cytosolic chaperone protein and it is co-immunoprecipitated with a number of other proteins under non-denaturingconditions (Beckmann, et al., 1990; Zhou, et al., 1995).

cathepsin B = cathepsin B (Homo sapiens, UniProt P07858); conditions: Rock, et al., 1994; cited from earlier work
calpain = conditions: Rock, et al., 1994; cited from earlier work
[1] = tested on: 3-hydroxy-3-methylglutaryl-coenzyme A (HMG-CoA) reductase; conditions: Inoue, et al., 1991; cited from earlier work
apoB = conditions: Sakata, et al., 1993, unpublished data; cited from earlier work
proteasomes = conditions: Rock, et al., 1994; cited from earlier work
HepG2 cells = experiment: Total incorporation of radiolabel (TCA cpm) as indicator of cell toxicity, HepG2; assay type: cell-based, human; conditions: HepG2, 4 hours; MG132 10 or 30 μM; lactacystin 10 μM
Description: as §1

C[C@@H]1C[C@@H]([C@H](O)CC2CC(=O)NC(=O)C2)C(=O)[C@@H](C)C1 [cycloheximide]
Effect of co-treatment on ALLN-induced HSF1 trimerization (HSF1): abolished the effect of ALLN on HSF1 trimerization
Effect of co-treatment on ALLN-induced hsp70 (hsp72) mRNA (hsp70 (hsp72) mRNA): abolished

aprotinin
Induction of Hsp70 by protease inhibitors (Hsp70): No induction

CSCC[C@@H](C=O)NC(=O)[C@H](CC(C)C)NC(=O)[C@H](CC(C)C)NC(C)=O [ALLM, N-acetyl-leucyl-leucyl-methioninal] (Ac-Leu-Leu-Met-aldehyde)
Activity against cathepsin B (cathepsin B): significant activities
Activity against calpain (calpain): significant activities
Protection of HMG-CoA reductase [1]: less effectively
Protection of apoB (apoB): less effectively
Ability to induce Hsp70 levels compared with ALLN (Hsp70; HepG2, 40 μg/ml, 4 hours): less ability to induce Hsp70 levels
Induction of Hsp70 by protease inhibitors (Hsp70): significantly induce
Inhibition of proteasomes (proteasomes): potent inhibitors

CC(=O)N[C@@H](CC(C)C)C(=O)N[C@@H](CC(C)C)C(=O)N[C@H](C=O)CCCNC(=N)N [Leupeptin, leupeptin]
Induction of Hsp70 by protease inhibitors (Hsp70): ineffective

CC(C)CC(=O)N[C@H](C(=O)N[C@H](C(=O)N[C@@H](CC(C)C)[C@@H](O)CC(=O)N[C@@H](C)C(=O)N[C@@H](CC(C)C)[C@@H](O)CC(=O)O)C(C)C)C(C)C [pepstatin] (Isovaleryl-VV[Sta]A[Sta]-OH)
Induction of Hsp70 by protease inhibitors (Hsp70): No induction

CC(C)C[C@@H](C=O)NC(=O)[C@H](CC(C)C)NC(=O)[C@H](CC(C)C)NC(=O)OCc1ccccc1 [MG132, Cbz-leucyl-leucyl-leucinal] (Cbz-Leu-Leu-Leu-aldehyde)
Toxicity to the cells (TCA-precipitable radioactivities) (HepG2 cells): without obvious toxicity
Induction of Hsp70 levels by proteasome inhibitors (Hsp70; HepG2, 4 hours, MG132 10 μM or 30 μM, lactacystin 10 μM, 30 min radiolabeling): induced Hsp70 levels dramatically

O=S(=O)(F)Cc1ccccc1 [PMSF, phenylmethylsulfonyl fluoride]
Induction of Hsp70 by protease inhibitors (Hsp70): No induction

Cc1c2oc3c(C)ccc(C(=O)N[C@@H]4C(=O)N[C@H](C(C)C)C(=O)N5CCC[C@H]5C(=O)N(C)CC(=O)N(C)[C@@H](C(C)C)C(=O)O[C@@H]4C)c3nc-2c(C(=O)N[C@@H]2C(=O)N[C@H](C(C)C)C(=O)N3CCC[C@H]3C(=O)N(C)CC(=O)N(C)[C@@H](C(C)C)C(=O)O[C@@H]2C)c(N)c1=O [actinomycin D] (I: T[dV]P[Sar][NMeV] / II: T[dV]P[Sar][NMeV]; ester I:1-I:C, II:1-II:C; linker I:N-II:N via Actinocin(9to1))
Effect of co-treatment on ALLN-induced hsp70 (hsp72) mRNA (hsp70 (hsp72) mRNA): abolished the effects of ALLN
